Measured values from ChEMBL document CHEMBL1649488, “In vitro activities of echinocandins against Candida krusei determined by three methods: MIC and minimal fungicidal concentration measurements and time-kill studies” (2009).
In brackets after ≈: the same amount, converted by molar mass. Starred links: 1 amine or outer side, 2 acyl side, 3 side chain; linkers in the order of their positions; H or OH if unused. Positions of bridges follow the written chain, without caps; N, C: chain ends. Non-standard residues stand in square brackets, D forms with d. Residues, ends and D or L forms follow the SMILES beside them. *: point of attachment. hTyr(3S-OH,4S-OH,3'-OSO3H) = N[C@H](C(=O)O)[C@H](O)[C@@H](O)c1ccc(O)c(OS(=O)(=O)O)c1; Orn(4R-OH,5R-OH) = O=C([C@H](C[C@@H](O)[C@@H](O)N[*:3])N[*:1])[*:2]; Pro(3S-OH,4S-Me) = C[C@H]1CN[C@H](C(=O)O)[C@H]1O; X1 = CCCCCOc1ccc(-c2cc(-c3ccc(C(=O)*)cc3)no2)cc1; Gln(3R-OH) = NC(=O)C[C@@H](O)[C@H](N)C(=O)O; Hyp = O=C(O)[C@@H]1C[C@@H](O)CN1

Tests used:
Format in all cases: functional
Pichia kudriavzevii [1] = experiment: Antifungal activity against Candida krusei ATCC 6258 bloodstream forms assessed as time to achieve 90% fungal growth reduction at 4 mg/L by time-kill analysis
Pichia kudriavzevii [2] = experiment: Antifungal activity against Candida krusei ATCC 6258 bloodstream forms assessed as time to achieve 99.9% fungal growth reduction at 1 mg/L by time-kill analysis
Pichia kudriavzevii [3] = experiment: Antifungal activity against Candida krusei ATCC 6258 bloodstream forms assessed as time to achieve 90% fungal growth reduction at 0.25 mg/L by time-kill analysis
Pichia kudriavzevii [4] = experiment: Antifungal activity against Candida krusei ATCC 6258 bloodstream forms assessed as time to achieve 50% fungal growth reduction at 4 mg/L by time-kill analysis
Pichia kudriavzevii [5] = experiment: Fungicidal activity against Candida krusei CY118 bloodstream forms after 24 hrs by time-kill analysis; settings: CY118, 24 h
Pichia kudriavzevii [6] = experiment: Antifungal activity against Candida krusei ATCC 6258 bloodstream forms assessed as time to achieve 50% fungal growth reduction at 16 mg/L by time-kill analysis
Pichia kudriavzevii [7] = experiment: Antifungal activity against Candida krusei ATCC 6258 bloodstream forms assessed as time to achieve 90% fungal growth reduction at 16 mg/L by time-kill analysis
Pichia kudriavzevii [8] = experiment: Antifungal activity against Candida krusei ATCC 6258 bloodstream forms assessed as time to achieve 50% fungal growth reduction at 1 mg/L by time-kill analysis
Pichia kudriavzevii [9] = experiment: Antifungal activity against Candida krusei ATCC 6258 bloodstream forms assessed as time to achieve 99% fungal growth reduction at 1 mg/L by time-kill analysis
Pichia kudriavzevii [10] = experiment: Fungicidal activity against Candida krusei CK18 bloodstream forms after 24 hrs by time-kill analysis; settings: CK18, 24 h
Pichia kudriavzevii [11] = experiment: Antifungal activity against Candida krusei CK1 bloodstream forms after 24 hrs by time-kill analysis; settings: CK1, 24 h
Pichia kudriavzevii [12] = experiment: Antifungal activity against Candida krusei ATCC 6258 bloodstream forms assessed as time to achieve 99.9% fungal growth reduction at 4 mg/L by time-kill analysis
Pichia kudriavzevii [13] = experiment: Fungicidal activity against Candida krusei EU123 bloodstream forms after 24 hrs by time-kill analysis; settings: EU123, 24 h
Pichia kudriavzevii [14] = experiment: Antifungal activity against Candida krusei ATCC 6258 bloodstream forms assessed as time to achieve 50% fungal growth reduction at 0.25 mg/L by time-kill analysis
Pichia kudriavzevii [15] = experiment: Fungicidal activity against Candida krusei ATCC 6258 bloodstream forms after 24 hrs by time-kill analysis; settings: ATCC 6258, 24 h
Pichia kudriavzevii [16] = experiment: Antifungal activity against Candida krusei ATCC 6258 bloodstream forms after 24 hrs by time-kill analysis; settings: ATCC 6258, 24 h
Pichia kudriavzevii [17] = experiment: Fungicidal activity against Candida krusei CK1 bloodstream forms after 24 hrs by time-kill analysis; settings: CK1, 24 h
Pichia kudriavzevii [18] = experiment: Antifungal activity against Candida krusei CK2 bloodstream forms after 24 hrs by time-kill analysis; settings: CK2, 24 h
Pichia kudriavzevii [19] = experiment: Antifungal activity against Candida krusei EU123 bloodstream forms after 24 hrs by time-kill analysis; settings: EU123, 24 h
Pichia kudriavzevii [20] = experiment: Fungicidal activity against Candida krusei EU220 bloodstream forms after 24 hrs by time-kill analysis; settings: EU220, 24 h
Pichia kudriavzevii [21] = experiment: Antifungal activity against Candida krusei ATCC 6258 bloodstream forms assessed as minimum concentration producing >= 100% growth reduction after 48 hrs by M27-A3 microdilution method; settings: ATCC 6258, 48 h
Pichia kudriavzevii [22] = experiment: Antifungal activity against Candida krusei CY118 bloodstream forms after 24 hrs by time-kill analysis; settings: CY118, 24 h
Pichia kudriavzevii [23] = experiment: Fungicidal activity against Candida krusei ATCC 6258 bloodstream forms after 48 hrs by M27-A3 microdilution method
Pichia kudriavzevii [24] = experiment: Antifungal activity against Candida krusei ATCC 6258 bloodstream forms assessed as minimum concentration producing >= 100% growth reduction after 24 hrs by M27-A3 microdilution method; settings: ATCC 6258, 24 h
Pichia kudriavzevii [25] = experiment: Fungicidal activity against Candida krusei CK6 bloodstream forms after 24 hrs by time-kill analysis; settings: CK6, 24 h
Pichia kudriavzevii [26] = experiment: Antifungal activity against Candida krusei CK18 bloodstream forms after 24 hrs by time-kill analysis; settings: CK18, 24 h
Pichia kudriavzevii [27] = experiment: Antifungal activity against Candida krusei CK6 bloodstream forms after 24 hrs by time-kill analysis; settings: CK6, 24 h
Pichia kudriavzevii [28] = experiment: Antifungal activity against Candida krusei EU220 bloodstream forms after 24 hrs by time-kill analysis; settings: EU220, 24 h
Pichia kudriavzevii [29] = experiment: Antifungal activity against Candida krusei ATCC 6258 bloodstream forms assessed as time to achieve 90% fungal growth reduction at 1 mg/L by time-kill analysis
Pichia kudriavzevii [30] = experiment: Antifungal activity against Candida krusei ATCC 6258 bloodstream forms assessed as time to achieve 99.9% fungal growth reduction at 0.25 mg/L by time-kill analysis
Pichia kudriavzevii [31] = experiment: Antifungal activity against Candida krusei ATCC 6258 bloodstream forms assessed as time to achieve 99% fungal growth reduction at 4 mg/L by time-kill analysis
Pichia kudriavzevii [32] = experiment: Fungicidal activity against Candida krusei CK2 bloodstream forms after 24 hrs by time-kill analysis; settings: CK2, 24 h
Pichia kudriavzevii [33] = experiment: Antifungal activity against Candida krusei ATCC 6258 bloodstream forms assessed as minimum concentration producing >= 50% growth reduction after 24 hrs by M27-A3 microdilution method; settings: ATCC 6258, 24 h
Pichia kudriavzevii [34] = experiment: Antifungal activity against Candida krusei ATCC 6258 bloodstream forms assessed as time to achieve 99% fungal growth reduction at 0.25 mg/L by time-kill analysis
Pichia kudriavzevii [35] = experiment: Antifungal activity against Candida krusei ATCC 6258 bloodstream forms assessed as minimum concentration producing >= 50% growth reduction after 48 hrs by M27-A3 microdilution method; settings: ATCC 6258, 48 h
Pichia kudriavzevii [36] = experiment: Antifungal activity against Candida krusei ATCC 6258 bloodstream forms assessed as time to achieve 99.9% fungal growth reduction at 16 mg/L by time-kill analysis
Pichia kudriavzevii [37] = experiment: Antifungal activity against Candida krusei ATCC 6258 bloodstream forms assessed as time to achieve 99% fungal growth reduction at 16 mg/L by time-kill analysis

CCCCCOc1ccc(-c2cc(-c3ccc(C(=O)N[C@H]4C[C@@H](O)[C@@H](O)NC(=O)[C@@H]5[C@@H](O)[C@@H](C)CN5C(=O)[C@H]([C@H](O)CC(N)=O)NC(=O)[C@H]([C@H](O)[C@@H](O)c5ccc(O)c(OS(=O)(=O)O)c5)NC(=O)[C@@H]5C[C@@H](O)CN5C(=O)[C@H]([C@@H](C)O)NC4=O)cc3)no2)cc1 [MICAFUNGIN] (X1-[Orn(4R-OH,5R-OH)]T[Hyp][hTyr(3S-OH,4S-OH,3'-OSO3H)][Gln(3R-OH)][Pro(3S-OH,4S-Me)]; lactam 1-C)
Time (Pichia kudriavzevii [1]): 10.63 h | Time (Pichia kudriavzevii [2]): 30.7 h | Time (Pichia kudriavzevii [3]): 10.3 h | Time (Pichia kudriavzevii [4]): 3.2 h | MFC (Pichia kudriavzevii [5]): 16 µg/mL (≈ 12.6 µM) | Time (Pichia kudriavzevii [6]): 2.6 h | Time (Pichia kudriavzevii [7]): 8.64 h | Time (Pichia kudriavzevii [8]): 3.1 h | Time (Pichia kudriavzevii [9]): 20.5 h | MFC (Pichia kudriavzevii [10]): 0.5 µg/mL (≈ 0.394 µM) | MIC (Pichia kudriavzevii [11]): 0.25 µg/mL (≈ 0.197 µM) | Time (Pichia kudriavzevii [12]): 31.88 h | MFC (Pichia kudriavzevii [13]): 0.5 µg/mL (≈ 0.394 µM) | Time (Pichia kudriavzevii [14]): 3.1 h | MFC (Pichia kudriavzevii [15]): 0.25 µg/mL (≈ 0.197 µM) | MIC (Pichia kudriavzevii [16]): 0.12 µg/mL (≈ 0.0945 µM) | MFC (Pichia kudriavzevii [17]): 0.5 µg/mL (≈ 0.394 µM) | MIC (Pichia kudriavzevii [18]): 0.5 µg/mL (≈ 0.394 µM) | MIC (Pichia kudriavzevii [19]): 0.12 µg/mL (≈ 0.0945 µM) | MFC (Pichia kudriavzevii [20]): 0.25 µg/mL (≈ 0.197 µM) | MIC50 (Pichia kudriavzevii [21]): 0.5 µg/mL (≈ 0.394 µM) | MIC90 (Pichia kudriavzevii [21]): 0.5 µg/mL (≈ 0.394 µM) | MIC (Pichia kudriavzevii [22]): 1 µg/mL (≈ 0.787 µM) | MFC50 (Pichia kudriavzevii [23]): 0.5 µg/mL (≈ 0.394 µM) | MFC90 (Pichia kudriavzevii [23]): 0.5 µg/mL (≈ 0.394 µM) | MFC (Pichia kudriavzevii [23]; Pichia kudriavzevii, ATCC 6258, 48 h): 0.25 µg/mL (≈ 0.197 µM) | MIC50 (Pichia kudriavzevii [24]): 0.5 µg/mL (≈ 0.394 µM) | MIC90 (Pichia kudriavzevii [24]): 0.5 µg/mL (≈ 0.394 µM) | MFC (Pichia kudriavzevii [25]): 0.5 µg/mL (≈ 0.394 µM) | MIC (Pichia kudriavzevii [26]): 0.25 µg/mL (≈ 0.197 µM) | MIC (Pichia kudriavzevii [27]): 0.5 µg/mL (≈ 0.394 µM) | MIC (Pichia kudriavzevii [28]): 0.25 µg/mL (≈ 0.197 µM) | Time (Pichia kudriavzevii [29]): 10.2 h | Time (Pichia kudriavzevii [30]): 31 h | Time (Pichia kudriavzevii [31]): 21.25 h | MFC (Pichia kudriavzevii [32]): 0.5 µg/mL (≈ 0.394 µM) | MIC50 (Pichia kudriavzevii [33]): 0.25 µg/mL (≈ 0.197 µM) | MIC90 (Pichia kudriavzevii [33]): 0.5 µg/mL (≈ 0.394 µM) | Time (Pichia kudriavzevii [34]): 20.6 h | MIC50 (Pichia kudriavzevii [35]): 0.5 µg/mL (≈ 0.394 µM) | MIC90 (Pichia kudriavzevii [35]): 0.5 µg/mL (≈ 0.394 µM) | Time (Pichia kudriavzevii [36]): 25.91 h | Time (Pichia kudriavzevii [37]): 17.28 h
